# Laboratory results from patent publication US12428406B2 (PMV Pharmaceuticals, Inc., priority 2019, dated 2025).
# Target: T1, p53 Y220C (Homo sapiens, UniProt P04637, Y220C)
# T1 construct: The recombinant protein was a truncation mutant containing only amino acids 94-312 of p53; made in house; host or cells: E. coli
# Experiment: In vitro DNA binding activity assay (HTRF / TR-FRET): stabilization of p53 Y220C and increase of its DNA binding activity
# Assay type: biochemical
# Conditions: recombinant His-tagged p53 Y220C DNA binding domain (aa 94-312), biotin-labeled consensus DNA, incubated at 27° C. or 29° C. for 60 min
# In short: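 Compounds from 4.5 mM DMSO stocks, 3-fold serial dilutions; room-temperature incubations of 15 and 20 min. SC150 = concentration raising DNA binding by 50% over no-compound control.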
# T1 sequence (P04637 94-312, change not shown): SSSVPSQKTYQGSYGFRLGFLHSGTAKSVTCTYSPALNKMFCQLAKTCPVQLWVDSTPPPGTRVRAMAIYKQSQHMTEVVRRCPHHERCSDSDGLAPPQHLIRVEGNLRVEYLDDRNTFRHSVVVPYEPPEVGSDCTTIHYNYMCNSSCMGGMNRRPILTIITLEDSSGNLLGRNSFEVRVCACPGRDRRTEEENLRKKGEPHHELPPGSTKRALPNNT
row,SC150 (concentration of the compound required to increase the DNA binding activity by 50%),SMILES
1,+ (+ = 0 μM ≤ SC150 < 0.05 μM),"COc1cc(S(=O)(=O)O)ccc1NCC#Cc1cc2c(N[C@@H]3CCN(C)C[C@@H]3F)cccc2n1CC(F)(F)F [Compound 931A, 4-{[3-(4-{[(3S,4R)-3-fluoro-1-methylpiperidin-4-yl]amino}-1-(2,2,2-trifluoroethyl)-1H-indol-2-yl)prop-2-yn-1-yl]amino}-3-methoxybenzene-1-sulfonic acid]"
2,+ (+ = 0 μM ≤ SC150 < 0.05 μM),"COCC(O)CN1CCC(Nc2cccc3c2cc(C#CCNc2ccc(S(=O)(=O)C(C)C)cc2OC)n3CC(F)(F)F)CC1 (stereo not drawn) [Compound 694A, 1-methoxy-3-(4-{[2-(3-{[2-methoxy-4-(propane-2-sulfonyl)phenyl]amino}prop-1-yn-1-yl)-1-(2,2,2-trifluoroethyl)-1H-indol-4-yl]amino}piperidin-1-yl)propan-2-ol]"
3,+ (+ = 0 μM ≤ SC150 < 0.05 μM),CNS(=O)(=O)c1ccc(NCC#Cc2cc3c(NC4CCOCC4)cccc3n2CC(F)(F)F)c(OC)c1 [Compound 1008A]
4,+ (+ = 0 μM ≤ SC150 < 0.05 μM),COc1cc(S(C)(=O)=O)ccc1NCC#Cc1cc2c(NC3CCN(C(=O)CN(C)C)CC3)cccc2n1CC(F)(F)F [Compound 750A]
5,+ (+ = 0 μM ≤ SC150 < 0.05 μM),"CCOc1cc(S(C)(=O)=O)ccc1NCC#Cc1cc2c(N[C@H]3CC[C@H](N(C)C)CC3)cccc2n1CC(F)(F)F [Compound 95A, (1R,4R)—N^4-(2-{3-[(2-ethoxy-4-methanesulfonylphenyl)amino]prop-1-yn-1-yl}-1-(2,2,2-trifluoroethyl)-1H-indol-4-yl)-N^1,N^1-dimethylcyclohexane-1,4-diamine]"
6,+ (+ = 0 μM ≤ SC150 < 0.05 μM),"COc1cc(S(C)(=O)=O)ccc1NCC#Cc1cc2c(NC3CC(CO)(CCl)C3)cccc2n1CC(F)(F)F (stereo not drawn) [Compound 19A, [1-(chloromethyl)-3-[(2-{3-[(4-methanesulfonyl-2-methoxyphenyl)amino]prop-1-yn-1-yl}-1-(2,2,2-trifluoroethyl)-1H-indol-4-yl)amino]cyclobutyl]methanol]"
7,+ (+ = 0 μM ≤ SC150 < 0.05 μM),"COC[C@@H](CN1CCC(Nc2cccc3c2cc(C#CCNc2ccc(S(C)(=O)=O)cc2OC)n3CC(F)(F)F)CC1)OC(=O)C(C)C [Compound 635A, (2R)-1-{4-[(2-{3-[(4-methanesulfonyl-2-methoxyphenyl)amino]prop-1-yn-1-yl}-1-(2,2,2-trifluoroethyl)-1H-indol-4-yl)amino]piperidin-1-yl}-3-methoxypropan-2-yl 2-methylpropanoate]"
8,+ (+ = 0 μM ≤ SC150 < 0.05 μM),"COc1cc(S(C)(=O)=O)ccc1NCC#Cc1cc2c(NC3CCN(C(C)C)CC3)cccc2n1CC(F)(F)F [Compound 542A, 2-{3-[(4-methanesulfonyl-2-methoxyphenyl)amino]prop-1-yn-1-yl}-N-[1-(propan-2-yl)piperidin-4-yl]-1-(2,2,2-trifluoroethyl)-1H-indol-4-amine]"
9,+ (+ = 0 μM ≤ SC150 < 0.05 μM),"COc1cc(S(=O)(=O)N2CCN(C)CC2)ccc1NCC#Cc1cc2c(NC3CCN(C)CC3)cccc2n1CC(F)(F)F [Compound 485A, 2-[3-({2-methoxy-4-[(4-methylpiperazin-1-yl)sulfonyl]phenyl}amino)prop-1-yn-1-yl]-N-(1-methylpiperidin-4-yl)-1-(2,2,2-trifluoroethyl)-1H-indol-4-amine]"
10,+ (+ = 0 μM ≤ SC150 < 0.05 μM),"COCCN1CC[C@@H](Nc2cccc3c2cc(C#CCNc2ccc(S(C)(=O)=O)cc2OC)n3CC(F)(F)F)[C@@H](F)C1 [Compound 859A, N-[(3S,4R)-3-fluoro-1-(2-methoxyethyl)piperidin-4-yl]-2-{3-[(4-methanesulfonyl-2-methoxyphenyl)amino]prop-1-yn-1-yl}-1-(2,2,2-trifluoroethyl)-1H-indol-4-amine]"
11,+ (+ = 0 μM ≤ SC150 < 0.05 μM),"CN(C)[C@H]1CC[C@@H](Nc2cccc3c2cc(C#CCNc2ccc(S(C)(=O)=O)cc2OCC#N)n3CC(F)(F)F)CC1 [Compound 82A, 2-(5-methanesulfonyl-2-{[3-(4-{[(1S,4S)-4-(dimethylamino)cyclohexyl]amino}-1-(2,2,2-trifluoro-ethyl)-1H-indol-2-yl)prop-2-yn-1-yl]amino}phenoxy)acetonitrile]"

# Further lines, the compound ahead of its results:
row,SMILES,SC150 (concentration of the compound required to increase the DNA binding activity by 50%)
1,"CNC(=O)c1ccc(NCC#Cc2cc3c(N[C@H]4CC[C@@H](N(C)C)CC4)cccc3n2CC(F)(F)F)c(OCCOC)c1 [Compound 99A, 3-(2-methoxyethoxy)-N-methyl-4-{[3-(4-{[(1S,4S)-4-(dimethyl-amino)cyclohexyl]amino}-1-(2,2,2-trifluoroethyl)-1H-indol-2-yl)prop-2-yn-1-yl]amino}benzamide]",+ (+ = 0 μM ≤ SC150 < 0.05 μM)
2,COc1cc(C(N)=O)ccc1NCC#Cc1cc2c(NC3CCN(C[C@@H](O)CO)CC3)cccc2n1CC(F)(F)F [Compound 583A],+ (+ = 0 μM ≤ SC150 < 0.05 μM)
3,"COc1cc(C(N)=O)ccc1NCC#Cc1cc2c(N[C@H]3CC[C@H](N(C)C)CC3)cccc2n1CC(F)(F)F [Compound 73A, 3-methoxy-4-{[3-(4-{[(1R,4R)-4-(dimethyl-amino)cyclohexyl]amino}-1-(2,2,2-trifluoroethyl)-1H-indol-2-yl)prop-2-yn-1-yl]amino}benzamide]",+ (+ = 0 μM ≤ SC150 < 0.05 μM)
4,"CN(C)[C@H]1CC[C@H](Nc2cccc3c2cc(C#CCNc2ccc(S(C)(=O)=O)cc2OCC#N)n3CC(F)(F)F)CC1 [Compound 81A, 2-(5-methanesulfonyl-2-{[3-(4-{[(1R,4R)-4-(dimethylamino)cyclohexyl]amino}-1-(2,2,2-trifluoro-ethyl)-1H-indol-2-yl)prop-2-yn-1-yl]amino}phenoxy)acetonitrile]",+ (+ = 0 μM ≤ SC150 < 0.05 μM)
5,"CCNC(=O)c1ccc(NCC#Cc2cc3c(N[C@H]4CC[C@H](N5CCOCC5)CC4)cccc3n2CC(F)(F)F)c(OC)c1 [Compound 183A, N-ethyl-3-methoxy-4-{[3-(4-{[(1R,4R)-4-(morpholin-4-yl)cyclohexyl]amino}-1-(2,2,2-trifluoroethyl)-1H-indol-2-yl)prop-2-yn-1-yl]amino}benzamide]",+ (+ = 0 μM ≤ SC150 < 0.05 μM)
6,"COCC(O)CN1CCC(Nc2cccc3c2cc(C#CCOc2ccc(S(C)(=O)=O)cc2N)n3CC(F)(F)F)CC1 (stereo not drawn) [Compound 646A, 1-[4-((2-[3-(2-amino-4-methanesulfonylphenoxy)prop-1-yn-1-yl]-1-(2,2,2-trifluoroethyl)-1H-indol-4-yl}amino)piperidin-1-yl]-3-methoxypropan-2-ol]",+ (+ = 0 μM ≤ SC150 < 0.05 μM)
7,"COCC(O)CN1CC[C@H](Nc2cccc3c2cc(C#CCNc2ccc(S(C)(=O)=O)cc2OC)n3CC(F)(F)F)[C@H](C)C1 (mixture of isomers) [Compound 701A, rac-1-[(3R,4R)-4-[(2-{3-[(4-methanesulfonyl-2-methoxyphenyl)amino]prop-1-yn-1-yl}-1-(2,2,2-trifluoroethyl)-1H-indol-4-yl)amino]-3-methylpiperidin-1-yl]-3-methoxypropan-2-ol]",+ (+ = 0 μM ≤ SC150 < 0.05 μM)
8,COc1cc(C(=O)O)ccc1NCC#Cc1cc2c(N[C@H]3CCNC[C@H]3F)cccc2n1CC(F)(F)F [Compound 852A],+ (+ = 0 μM ≤ SC150 < 0.05 μM)
9,COc1cc(C(=O)NCCO)ccc1NCC#Cc1cc2c(N[C@@H]3CCN(C)C[C@@H]3F)cccc2n1CC(F)(F)F [Compound 947A],+ (+ = 0 μM ≤ SC150 < 0.05 μM)
10,"CN(C)[C@H]1CC[C@@H](Nc2cccc3c2cc(C#CCNc2ccc(S(C)(=O)=O)cc2C(F)(F)F)n3CC(F)(F)F)CC1 [Compound 138A, (1S,4S)-N^4-[2-(3-{[4-methanesulfonyl-2-(trifluoromethyl)phenyl]amino}prop-1-yn-1-yl)-1-(2,2,2-trifluoroethyl)-1H-indol-4-yl]-N^1,N^1-dimethylcyclohexane-1,4-diamine]",+++ (+++ = 0.1 μM ≤ SC150 < 0.2 μM)
11,COCCN(C)[C@H]1CC[C@H](Nc2cccc3c2cc(C#CCNc2ccc(S(C)(=O)=O)cc2OCC#N)n3CC(F)(F)F)CC1 [Compound 149A],+ (+ = 0 μM ≤ SC150 < 0.05 μM)
12,"COc1cc(S(C)(=O)=O)ccc1NCC#Cc1cc2c(N[C@@H]3CCC4(C[C@@H]3F)OCCO4)cccc2n1CC(F)(F)F [Compound 870A, N-[(7S,8R)-7-fluoro-1,4-dioxaspiro[4.5]decan-8-yl]-2-{3-[(4-methanesulfonyl-2-methoxyphenyl)amino]prop-1-yn-1-yl}-1-(2,2,2-trifluoroethyl)-1H-indol-4-amine]",+ (+ = 0 μM ≤ SC150 < 0.05 μM)
13,"CNC(=O)c1ccc(NCC#Cc2cc3c(N[C@H]4CC[C@H](N5CC6(CCOCC6)C5)CC4)cccc3n2CC(F)(F)F)c(OC)c1 [Compound 295A, 3-methoxy-N-methyl-4-{[3-(4-{[(1R,4R)-4-{7-oxa-2-azaspiro[3.5]nonan-2-yl}cyclo-hexyl]amino}-1-(2,2,2-trifluoroethyl)-1H-indol-2-yl)prop-2-yn-1-yl]amino}benzamide]",+ (+ = 0 μM ≤ SC150 < 0.05 μM)
